Data: patent US10772903B2, “Targeting fungi in combination with cancer therapy” (Cedars-Sinai Medical Center, priority 2016, dated 2020)

Experiments:
E0771 mammary tumors = experiment: Orthotopic E0771 mammary tumors, tumor growth after localized irradiation with or without antibiotics/antifungals; format: in vivo, mice; conditions: for tumor response to RT: agent for one week prior to localized kV irradiation (16 Gy), FIG. 26, 27A
Experimental: Orthotopic E0771 mammary tumors were grown to a median diameter of 1.0 cm and mice were then started with either antibiotics (Abx) or antifungals (AF) for one week prior to being treated with localized kV irradiation (16 Gy). Total tumor burden/animal assessed every 3 days until endpoint. […] Antibiotics (Abx) were ampicillin, imipenem, cilastin and vancomycin. Fluconazole was the antifungals (AF) used for these experiments. Significance was determined by two-way ANOVA. Kaplan-Meier survival curves are also shown with significance determined by the Log-Rank test (FIG. 26G, FIG. 26H). One of five experiments is shown. […] For all figures significance is shown as *p<0.05, **p<0.01, ***p<0.001.
Orthotopic E0771 mammary tumors were grown as described above and then treated with either the antifungal (5-fluorocytosine) one week prior to treatment with localized kV irradiation (16 Gy) (n=8 per group, one of two repeats shown) (FIG. 27A).
For experiments assessing antifungal treatment and the efficacy of radiation therapy (FIGS. 2 and 13), mice bearing syngeneic murine tumors (derived from the E0771 cell line) were treated for one week with fluconazole by putting fluconazole in their drinking water. When tumors reached approximately 1 cm in size they were irradiated with 16 Gray of focal radiation from a Cesium-137 source. The tumors were then followed for tumor growth until they reached approximately 2 cm in size at which time they were harvested for analysis.
For experiments assessing the anti-fungal combination treatment (FIG. 14), in addition to just fluconazole the mice were treated with a cocktail of antifungals (Fluconazole, 5-Fluorocytosine and Amphotericin B) for one week prior to RT.

CD4+ T cells = experiment: Cytokine expression of CD4+ T cells from tumors; format: in vivo, mice; conditions: FIG. 4
Source text: Tumors were harvested from mice at various time points and analyzed by flow cytometry (FACS) (FIG. 22A), immunohistochemistry (IHC) (FIG. 22B) and qPCR (FIG. 22C). FIG. 22A) For FACS, tumors were enzymatically dissociated with and labeled with fluorescently tagged antibodies and then placed on a flow cytometer. FIG. 22B) For IHC, tumor fragments were fixed in formalin and embedded in paraffin. 5 micron sections were then cut and stained with various antibodies and developed with DAB prior to whole-slide scanning on the Aperio system (Leica Biosystems). FIG. 22C) qPCR was performed on flow sorted immune cells (e.g. CD4+ T cells or macrophages) and then subjected to qPCR with a panel of primers.
Tumors are harvested and evaluated at three endpoints: 1, 2, 4 and 10 days following RT. […]

tumors = experiment: Tumor immunohistochemistry: proliferation, cell death, vessels; format: in vivo, mice; conditions: FIG. 5
Experimental: Orthotopic E0771 mammary tumors were grown to a median diameter of 1.0 cm and mice were then started with either antibiotics (Abx) or antifungals (AF) for one week prior to being treated with localized kV irradiation (16 Gy). Total tumor burden/animal assessed every 3 days until endpoint. […] Antibiotics (Abx) were ampicillin, imipenem, cilastin and vancomycin. Fluconazole was the antifungals (AF) used for these experiments. Significance was determined by two-way ANOVA. Kaplan-Meier survival curves are also shown with significance determined by the Log-Rank test (FIG. 26G, FIG. 26H). One of five experiments is shown. Tumors from mice were harvested at one week following RT and stained for bromodeoxyuridine (BrdU) and cleaved caspase 3 (CC3) to assess for proliferation and cell death respectively (FIG. 26I, FIG. 26J). Slides were scanned using the Aperio slide scanner and analyzed using the ScanScope nuclear algorithm included in the Aperio software package. Significance was determined by two-way ANOVA. For all figures significance is shown as *p<0.05, **p<0.01, ***p<0.001.

intratumoral leukocytes = conditions: FIG. 3; with RT; fluconazole added to RT and antibiotics
Experimental: Irradiated E0771 mammary tumors were harvested from mice at one week following RT. Tumors were dissociated using the tumor dissociation kit (Miltenyi Biotech) and CD45+ cells were then isolated with CD45+ MacsBeads. The resulting CD45+ cells were then stained with fluorescent antibodies and run on a flow cytometer. Total leukocytes (CD45+ Cells), CD4+ T cells, CD8+ T cells, M1 macrophages (CD11b+Ly6C+) and M1 macrophages (CD11b+F4/80′) were assessed following antibiotic (FIG. 28A-FIG. 28D) and antifungal (FIG. 28E-FIG. 28H) treatment. Antibiotics (Abx) were ampicillin, imipenem, cilastin and vancomycin. Fluconazole was the antifungal (AF) used for these experiments. n=5-7 per group and represent one of five independent experiments.

SMILES	tumor response to RT (E0771 mammary tumors)	efficacy of RT (E0771 mammary tumors; FIG. 12A, RT 16 Gy)	IFN-γ expression by CD4+ T cells (CD4+ T cells)	IL-4 expression by CD4+ T cells (CD4+ T cells)	tumor apoptosis (tumors)	tumor cell division (tumors)	CD4+ T cells (intratumoral leukocytes)	CD8+ T cells (intratumoral leukocytes)
Nc1nc(=O)[nH]cc1F [5-fluorocytosine]	similarly enhance the efficacy of RT							
OC(Cn1cncn1)(Cn1cncn1)c1ccc(F)cc1F [Fluconazole]	enhance	increases the efficacy of RT	more	less	opposite	opposite	reduces the increase in CD4+ T cell	prevents the reduction of CD8+ T cells
